Source: patent publication US20240043618A1, “ANTIMICROBIAL COMPOSITIONS” (priority 2021, published 2024)

Tests used:
[1] = system: P. aeruginosa (gram−); conditions: reported value of antibiotic; cited from earlier work
[2] = system: S. aureus (gram+); conditions: reported value of antibiotic; cited from earlier work
[3] = system: E. coli (gram−); conditions: reported value of antibiotic; cited from earlier work
[4] = system: C. albicans fungal strain; conditions: reported value of antibiotic; cited from earlier work
[5] = system: B. subtilis (gram+); conditions: reported value of antibiotic; cited from earlier work
[6] = system: SARS-CoV-2; type: cell-based; conditions: 70% concentration, 30 min contact, 22 ± 2° C.
[7] = system: Vero E6 cells

What does the source list for gentamycin?
MIC [1]: 4 mg/L; MIC [2]: 10 mg/L; MIC [3]: 8 mg/L; MIC [4]: 2.5 mg/L; MIC [5]: 4 mg/L

Which results are given for `CCO` [Ethanol]?
Virus Titer [6]: <0.7 log10 CCID50 of virus per 0.1 mL; LRV (log reduction value) ([6]; vs virus control 4.3): >3.6; Toxicity (highest dilution of the endpoint titer where full (80-100%) cytotoxicity was observed) [7]: None
